Test results reported in patent US20160313301A1, “METHOD FOR PREDICTING ANTITUMOR EFFICACY OF HSP90 INHIBITOR IN CANCER TREATMENT” (NIPPON KAYAKU KABUSHIKI KAISHA, priority 2013, published 2016).

Key:
Type in all cases: in vivo
[1] = system: human ovarian cancer cell line ES-2; experiment: Anti-tumor test in mice transplanted subcutaneously with tumor (ES-2); conditions: ES-2 s.c. in mice
Experimental: (§1) Human ovarian cancer cell lines OC-10-JCK, OC-11-JCK, and TOGY-18, and a human breast cancer cell line MC-19-JCK were obtained from Central Institute for Experimental Animals. Cryopreserved tumor pieces were thawed, and then OC-10-JCK, OC-11-JCK, and MC-19-JCK were transplanted subcutaneously to SCID mice, while TOGY-18 was transplanted subcutaneously to nude mice. After the tumors were grown, the tumors were removed and cut into tumor pieces. The tumor pieces were transplanted subcutaneously to SCID mice or nude mice with trocars. The tumors were maintained by repeated transplantation in the same manner as described above to prepare tumors to be transplanted. Human ovarian cancer cell lines ES-2, SK-OV-3, OV-90, and TOV-21G, and a human lung cancer cell line NCI-H1975 were obtained from American Type Culture Collection (ATCC). The SK-OV-3 and NCI-H1975 cell lines were grown in recommended culture media, of which about 1×10^7 cells were suspended into HBSS and then injected subcutaneously to SCID mice. After the cells formed tumors, the tumors were removed and cut into tumor pieces. The tumor pieces were transplanted subcutaneously to SCID mice with trocars. The tumors were maintained by repeated transplantation in the same manner as described above to prepare tumors to be transplanted. […]

[2] = system: human breast cancer cells JIMT-1; experiment: Anti-tumor test in mice transplanted subcutaneously with tumor (JIMT-1); conditions: JIMT-1 s.c. in mice; 40 mg/kg three times at 7 day intervals
Experimental: as §1

[3] = system: human lung cancer cells NCI-H1975; experiment: Anti-tumor test in mice transplanted subcutaneously with tumor (NCI-H1975); conditions: NCI-H1975 s.c. in mice; 40 mg/kg three times at 7 day intervals
Experimental: as §1

Compound: CC(C)c1cc(-c2n[nH]c(=O)n2-c2ccc(CN3CCN(C)CC3)cc2)c(O)cc1O [A-1, 5-(2,4-dihydroxy-5-isopropyl-phenyl)-4-[4-(4-methyl-piperazin-1-ylmethyl)-phenyl]-2,4-dihydro-[1,2,4]triazol-3-one]
- anti-tumor effect (in words) [1]: relatively highly effective
- T/C % (lowest value from the beginning to the 21st day of administration) ([1]; 40 mg/kg tail vein three times at 4 day intervals): 25.6%
- T/C % (lowest value from the beginning to the 21st day of administration) [2]: 34.9%
- T/C % (lowest value from the beginning to the 21st day of administration) [3]: 49.4%
